Results on six compounds are retold here after the supplement of paper PMC11061612.

Test in all cases: Bliss excess, mean over the matrix (fraction); higher = more synergy
In assay [1] the test system is WM-115 (Melanoma). In short, it runs like this: (§1)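 After 24 hours at 37°C and 5% CO2 in 1536-well plates, cells in DMEM/F12 or RPMI plus 10% FBS received two-drug dose matrices for 72 hours. Viability came from CellTiter-Glo 2.0 luminescence and was scaled as inhibition, anchored at 0 by vehicle wells and at 1 by blank wells. Combination Emax is taken as the second-highest inhibition in the matrix, and Bliss excess as the observed combination effect less EA + EB − EA·EB, with EA and EB the single-agent effects.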

The subject of assay [2] is HDQ-P1 (Breast Carcinoma). Summed up:
as §1

Assay [3] concerns MOLT-16 (T-Lymphoblastic Leukemia). Summed up:
as §1

Assay [4] concerns KCL-22 (Chronic Myelogenous Leukemia). In short, it runs like this:
as §1

For assay [5], the system named is NCI-H2818 (Mesothelioma). Summed up:
as §1

Assay [6] has as its system SW837 (Colorectal Carcinoma). In short, it runs like this:
as §1

Assay [7] concerns ES1 (Ewing's Sarcoma). In short, it runs like this:
as §1

Assay [8] concerns SU-DHL-8 (B-Cell Non-Hodgkin's Lymphoma). In short, it runs like this: as §1
For assay [9], the system named is SR (Other Blood Carcinomas). Summed up:
as §1

For assay [10], the system named is GR-ST (B-Lymphoblastic Leukemia). In short, it runs like this:
as §1

Assay [11] deals with KARPAS-45 (T-Lymphoblastic Leukemia). Summed up:
as §1

The test system of assay [12] is K-562 (Chronic Myelogenous Leukemia). In short, it runs like this: as §1
For assay [13], the system named is MS751 (Cervical Carcinoma). In short, it runs like this:
as §1

Assay [14] concerns P12-ICHIKAWA (T-Lymphoblastic Leukemia). Summed up: as §1
For assay [15], the system named is HL-60 (Acute Myeloid Leukemia). In short, it runs like this: as §1
Assay [16] concerns ES8 (Ewing's Sarcoma). Summed up:
as §1

Assay [17] relates to BFTC-905 (Bladder Carcinoma). In short, it runs like this: as §1
The test system of assay [18] is L-540 (Hodgkin's Lymphoma). Summed up: as §1
In assay [19] the test system is EVSA-T (Breast Carcinoma). Summed up: as §1
Assay [20] has as its system U251 (Low Grade Glioma). Summed up: as §1

Consider `Cc1c2c(nn1C)CSCc1cc(n(C)n1)CSc1cc(c3ccccc3c1)OCCCc1c(C(=O)O)n(C)c3c-2c(Cl)ccc13` [AZD5991] + C=CCn1c(=O)c2cnc(Nc3ccc(N4CCN(C)CC4)cc3)nc2n1-c1cccc(C(C)(C)O)n1 [AZD1775] (first compound max 1 µM, partner max 1 µM), for which the Bliss excess in [1] was -0.0328; in [2], -0.0575; in assay [3] it was 0.01; in assay [4] it was -0.035; in assay [5], 0.112; in assay [6], 0. The Bliss excess in assay [7] was -0.0524; in [8] it was -0.01; in assay [9], -0.045; in assay [10] it was -0.0402; in assay [11] it was -0.0189; in assay [12], 0.0092. Moreover, the Bliss excess in assay [13] was -0.0155; in assay [14] it was 0.0528; in [15], -0.0149; in assay [16], 0.0203; in assay [17], -0.0212; in assay [18], -0.0127. The values for the Bliss excess in assay [19] and in assay [20] were 0.0165 and 0.0025, respectively.
With `COc1nnc2ccc(N3CCC(c4ccc(OCCN5CCN(C)C(=O)[C@H]5C)cc4)CC3)nn12` [AZD5153] + Cc1c2c(nn1C)CSCc1cc(n(C)n1)CSc1cc(c3ccccc3c1)OCCCc1c(C(=O)O)n(C)c3c-2c(Cl)ccc13 [AZD5991] (first compound max 1 µM, 7x7, partner max 1 µM), the Bliss excess is -0.0256 in assay [1]; -0.0667 in [2]; -0.0072 in assay [3]; -0.0633 in assay [4]; 0.0183 in assay [5]; -0.0411 in assay [6]. Moreover, the Bliss excess in assay [7] was -0.037; in [8] it was -0.0131; in assay [9] it was -0.0275; in assay [10] it was -0.027; in [11], 0.0139; in [12], -0.0496. Besides, the Bliss excess in [13] was 0.0038; in assay [14], 0.0813; in assay [15], -0.0038; in assay [16], 0.0357; in assay [17], -0.0056; in [18], 0.0062. Also, the figures for the Bliss excess in [19] and in [20] were 0.003 and -0.0253, respectively.
For the compound `NC1(C(=O)N[C@@H](CCO)c2ccc(Cl)cc2)CCN(c2ncnc3[nH]ccc23)CC1` [Capivasertib] + Cn1cnc2c(F)c(Nc3ccc(Br)cc3Cl)c(C(=O)NOCCO)cc21 [Selumetinib] (first compound max 10 µM, 7x7, partner max 10 µM), the Bliss excess in assay [1] is 0.071; in assay [2], -0.0046; in assay [3], 0.0683; in assay [4], 0.117; in assay [5] it was -0.0014; in assay [6], -0.0357. The Bliss excess is 0.0724 in assay [7]; -0.0214 in assay [8]; 0.0682 in assay [9]; -0.0428 in assay [10]; 0.0796 in assay [11]; 0.0713 in assay [12]. For the same compound, the Bliss excess in assay [13] was 0.0024; in assay [14], 0.15; in assay [15], 0.021; in assay [16], -0.0548; in assay [17], -0.0047; in assay [18], -0.0345. Moreover, the Bliss excess in assay [19] was -0.0157; in assay [20], 0.0099.
As to `COc1cccc(OCCCN)c1-c1cc(Nc2cnc(C#N)cn2)n[nH]1` [Prexasertib] + CCc1c2c(nc3ccc(O)cc13)-c1cc3c(c(=O)n1C2)COC(=O)[C@]3(O)CC [SN-38] (first compound max 1 µM, 7x7, partner max 0.3 µM), the Bliss excess in assay [1] was -0.0492; in assay [2], 0.0367; in [3] it was 0.0103; in [4] it was 0.0175; in assay [5], -0.0745; in [6], 0.0546. Besides, the Bliss excess in assay [7] is 0.0085; in [8] it was -0.0171; in assay [9], -0.0378; in assay [10] it was -0.106; in assay [11], 0.0731; in assay [12], 0.0726. The Bliss excess was 0.0628 in assay [13]; -0.0253 in [14]; -0.0203 in assay [15]; -0.0301 in [16]; -0.0004 in assay [17]; -0.0621 in assay [18]. Also, the values for the Bliss excess in assay [19] and in assay [20] were 0.224 and 0.0241, respectively.
In the case of `Cc1c2c(nn1C)CSCc1cc(n(C)n1)CSc1cc(c3ccccc3c1)OCCCc1c(C(=O)O)n(C)c3c-2c(Cl)ccc13` [AZD5991] + CCN(CCO)CCCOc1ccc2c(Nc3cc(CC(=O)Nc4cccc(F)c4)[nH]n3)ncnc2c1 [AZD2811] (first compound max 1 µM, 7x7, partner max 1 µM), the Bliss excess in [1] is -0.0726; in [2], -0.0283; in [3] it was -0.0114; in assay [4], 0.0736; in assay [5], -0.0116; in assay [6] it was -0.0341. The Bliss excess in assay [7] was 0.0915; in assay [8], 0.0416; in [9] it was 0.178; in [10] it was -0.0742; in assay [11] it was -0.0409; in [12] it was 0.086. Besides, the Bliss excess in assay [13] is 0.0367; in [14], -0.0164; in assay [15] it was -0.0001; in assay [16] it was 0.012; in assay [17], 0.11; in assay [18], 0.0788. Besides, the Bliss excess in assay [19] amounted to 0.0959; in assay [20], 0.098.
Regarding `Cn1cnc2c(F)c(Nc3ccc(Br)cc3Cl)c(C(=O)NOCCO)cc21` [Selumetinib] + C[C@@H]1COCCN1C2=NC(=NC(=C2)C3(CC3)[S@](=N)(=O)C)C4=C5C=CNC5=NC=C4 [AZD6738] (first compound max 10 µM, 7x7, partner max 10 µM), the Bliss excess in assay [1] was 0.0116; in assay [2] it was 0.0228; in assay [3], 0.0063; in assay [4] it was -0.0129; in assay [5], -0.0144; in [6], -0.095. Further, the Bliss excess in assay [7] was -0.0257; in assay [8] it was -0.0454; in [9], -0.0169; in assay [10] it was -0.0301; in [11] it was 0.0047; in assay [12], -0.0116. Further, the Bliss excess in assay [13] is 0.0516; in assay [14], 0.0286; in assay [15] it was -0.039; in [16], -0.069; in assay [17], -0.0351; in [18], -0.0415. The Bliss excess in assay [19] was -0.0377; in assay [20], -0.0149.
